Reference: PMC10287670, “A coiled-coil-based design strategy for the thermostabilization of G-protein-coupled receptors” (Scientific Reports, 2023)
pKd: −log10 of the molar value.

Molecular target: T1, β3 adrenergic receptor (β3AR-cc3.1 chimera) (Homo sapiens, UniProt P13945, E36A/M86V/I125V/E126W/Y224A/F341M/Y346L)
T1 construct: gene ADRB3; Ala2 to Leu368 lacking Pro3 to Thr27, with Thermus thermophilus SRS antiparallel coiled coil cc3.1 inserted between Ala231 and Glu286 (replacing ICL3); N-terminal FLAG and C-terminal TwinStrep tags
Assay: radioligand saturation binding (SPA) on membranes of HEK-293S-GnTI- cells expressing β3AR-cc3.[…]

T1 sequence (P13945 2-368 E36A/M86V/I125V/E126W/Y224A/F341M/Y346L): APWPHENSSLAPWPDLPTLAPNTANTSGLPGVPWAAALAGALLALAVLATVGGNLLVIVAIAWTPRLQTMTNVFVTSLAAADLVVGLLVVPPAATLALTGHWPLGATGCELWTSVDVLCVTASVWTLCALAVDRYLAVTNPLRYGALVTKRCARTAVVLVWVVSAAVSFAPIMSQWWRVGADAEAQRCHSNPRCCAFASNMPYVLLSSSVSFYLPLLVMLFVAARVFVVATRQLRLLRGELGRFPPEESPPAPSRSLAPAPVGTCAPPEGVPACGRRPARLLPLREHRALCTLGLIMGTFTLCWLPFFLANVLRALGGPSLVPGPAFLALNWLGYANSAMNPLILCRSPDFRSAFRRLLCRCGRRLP

Work on `CCCc1ccccc1OC[C@@H](O)CNC(C)C` [[3H]-dihydroalprenolol] yielded a pKd of 6.82.
